Assay results taken from ChEMBL document CHEMBL5465560, “Selectivity Literature for EUbOPEN Chemogenomic Library” (2024).
One block for each molecule: values may come before it.

Columns and labels:
[1] = biological target: T1, Serine/threonine-protein kinase 36 (Homo sapiens) (UniProt Q9NRP7); assay: Selectivity interaction (KinomeScan (DiscoverX)) EUB0000666a STK36; details: at 10 µM
T1 sequence (whole entry): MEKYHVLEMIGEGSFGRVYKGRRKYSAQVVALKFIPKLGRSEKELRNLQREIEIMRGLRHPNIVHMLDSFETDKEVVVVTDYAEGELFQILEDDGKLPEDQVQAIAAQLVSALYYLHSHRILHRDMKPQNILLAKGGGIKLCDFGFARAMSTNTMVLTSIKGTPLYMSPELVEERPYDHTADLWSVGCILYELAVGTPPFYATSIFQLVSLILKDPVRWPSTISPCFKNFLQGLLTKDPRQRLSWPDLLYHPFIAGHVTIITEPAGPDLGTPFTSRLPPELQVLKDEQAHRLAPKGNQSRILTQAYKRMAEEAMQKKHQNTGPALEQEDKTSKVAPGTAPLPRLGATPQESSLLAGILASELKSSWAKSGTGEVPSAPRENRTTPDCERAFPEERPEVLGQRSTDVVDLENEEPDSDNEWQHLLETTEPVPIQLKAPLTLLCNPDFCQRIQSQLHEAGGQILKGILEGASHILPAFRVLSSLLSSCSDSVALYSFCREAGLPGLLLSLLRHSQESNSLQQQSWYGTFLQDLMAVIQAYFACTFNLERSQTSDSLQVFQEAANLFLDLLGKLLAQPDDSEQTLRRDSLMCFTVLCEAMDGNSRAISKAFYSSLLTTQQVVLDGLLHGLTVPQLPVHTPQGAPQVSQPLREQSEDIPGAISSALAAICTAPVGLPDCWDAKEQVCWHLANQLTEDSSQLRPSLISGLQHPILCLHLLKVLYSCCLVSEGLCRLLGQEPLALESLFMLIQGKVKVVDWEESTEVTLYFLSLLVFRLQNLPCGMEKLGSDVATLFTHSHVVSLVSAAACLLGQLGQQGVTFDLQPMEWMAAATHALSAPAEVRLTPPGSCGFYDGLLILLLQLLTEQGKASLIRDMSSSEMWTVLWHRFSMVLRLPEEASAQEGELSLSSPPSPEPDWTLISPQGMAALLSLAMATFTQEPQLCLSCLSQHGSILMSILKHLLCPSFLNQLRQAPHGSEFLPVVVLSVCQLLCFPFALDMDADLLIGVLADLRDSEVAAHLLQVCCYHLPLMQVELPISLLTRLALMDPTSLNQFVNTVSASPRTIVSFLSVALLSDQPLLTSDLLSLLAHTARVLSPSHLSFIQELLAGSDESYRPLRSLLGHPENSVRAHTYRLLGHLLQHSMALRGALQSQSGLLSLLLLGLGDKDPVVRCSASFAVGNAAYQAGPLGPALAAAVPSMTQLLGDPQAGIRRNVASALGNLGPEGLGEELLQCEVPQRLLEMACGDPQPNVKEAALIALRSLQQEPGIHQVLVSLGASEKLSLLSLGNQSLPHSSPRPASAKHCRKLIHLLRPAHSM

[2] = biological target: Death-associated protein kinase 3 (Homo sapiens) (UniProt O43293); assay: Selectivity interaction (KinomeScan (DiscoverX)) EUB0000607a DAPK3; details: at 10 µM
Chain of Death-associated protein kinase 3 (Homo sapiens) (O43293 whole entry, looked up): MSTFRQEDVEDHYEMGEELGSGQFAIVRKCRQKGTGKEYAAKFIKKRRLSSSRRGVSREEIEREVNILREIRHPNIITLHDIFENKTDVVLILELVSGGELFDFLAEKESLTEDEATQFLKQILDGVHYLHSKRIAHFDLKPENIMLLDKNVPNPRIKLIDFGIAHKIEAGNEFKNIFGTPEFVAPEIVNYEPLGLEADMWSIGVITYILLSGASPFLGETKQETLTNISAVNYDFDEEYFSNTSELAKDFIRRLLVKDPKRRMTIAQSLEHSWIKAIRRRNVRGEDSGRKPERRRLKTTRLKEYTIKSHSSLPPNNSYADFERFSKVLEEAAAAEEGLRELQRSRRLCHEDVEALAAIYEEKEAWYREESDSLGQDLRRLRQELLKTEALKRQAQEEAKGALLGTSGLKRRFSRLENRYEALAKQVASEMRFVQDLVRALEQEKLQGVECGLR

[3] = biological target: Platelet-derived growth factor receptor alpha (Homo sapiens, UniProt P16234); assay: Selectivity interaction (KinomeScan (DiscoverX)) EUB0000607a PDGFRA; details: at 10 µM
Chain of Platelet-derived growth factor receptor alpha (P16234 whole entry): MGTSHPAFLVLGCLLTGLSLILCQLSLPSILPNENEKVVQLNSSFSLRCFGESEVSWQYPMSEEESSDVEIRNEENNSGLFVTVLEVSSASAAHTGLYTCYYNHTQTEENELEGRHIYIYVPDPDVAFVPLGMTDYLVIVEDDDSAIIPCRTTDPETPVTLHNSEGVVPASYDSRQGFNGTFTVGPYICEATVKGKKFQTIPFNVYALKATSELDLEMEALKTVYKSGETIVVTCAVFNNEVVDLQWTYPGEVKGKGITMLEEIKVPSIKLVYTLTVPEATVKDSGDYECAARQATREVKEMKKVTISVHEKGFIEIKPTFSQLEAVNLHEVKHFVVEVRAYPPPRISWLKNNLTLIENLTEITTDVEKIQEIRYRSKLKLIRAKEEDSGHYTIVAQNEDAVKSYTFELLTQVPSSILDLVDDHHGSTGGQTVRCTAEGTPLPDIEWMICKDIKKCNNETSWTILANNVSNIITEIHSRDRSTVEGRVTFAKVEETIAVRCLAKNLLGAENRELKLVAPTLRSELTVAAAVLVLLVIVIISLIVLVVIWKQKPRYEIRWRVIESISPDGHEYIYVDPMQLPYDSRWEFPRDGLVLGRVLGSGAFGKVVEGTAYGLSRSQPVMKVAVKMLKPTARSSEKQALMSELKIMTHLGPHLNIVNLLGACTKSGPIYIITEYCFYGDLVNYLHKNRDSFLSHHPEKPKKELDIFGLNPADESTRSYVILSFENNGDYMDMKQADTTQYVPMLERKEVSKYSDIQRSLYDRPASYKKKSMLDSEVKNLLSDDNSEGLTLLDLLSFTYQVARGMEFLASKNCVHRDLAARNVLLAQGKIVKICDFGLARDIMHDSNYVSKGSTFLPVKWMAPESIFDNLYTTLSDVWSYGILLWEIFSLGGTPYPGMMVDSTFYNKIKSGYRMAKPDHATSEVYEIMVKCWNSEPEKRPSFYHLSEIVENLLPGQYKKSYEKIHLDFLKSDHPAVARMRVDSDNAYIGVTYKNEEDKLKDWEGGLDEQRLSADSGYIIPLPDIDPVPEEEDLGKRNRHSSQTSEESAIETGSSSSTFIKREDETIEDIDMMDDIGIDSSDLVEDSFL

[4] = biological target: T2, Dual specificity mitogen-activated protein kinase kinase 6 (Homo sapiens) (UniProt P52564); assay: Selectivity interaction (ActivX KiNativ screen (kinase selectivity in THP-1 cell lysates)) EUB0000639a MAP2K6; assay type: subcellular; details: lysate
T2 sequence (whole entry): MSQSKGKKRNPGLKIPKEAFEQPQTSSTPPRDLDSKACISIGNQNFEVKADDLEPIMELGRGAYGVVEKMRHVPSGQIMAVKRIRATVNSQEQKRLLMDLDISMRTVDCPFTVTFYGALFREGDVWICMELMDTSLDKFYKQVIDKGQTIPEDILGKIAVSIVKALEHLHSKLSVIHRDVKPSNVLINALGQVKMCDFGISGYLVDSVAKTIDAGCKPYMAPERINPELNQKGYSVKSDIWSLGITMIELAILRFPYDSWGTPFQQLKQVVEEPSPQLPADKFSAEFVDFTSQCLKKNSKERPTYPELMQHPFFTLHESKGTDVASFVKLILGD

[5] = biological target: Calcium/calmodulin-dependent protein kinase kinase 1 (Homo sapiens) (UniProt Q8N5S9); assay: Selectivity interaction (KinomeScan (DiscoverX)) EUB0001049a CAMKK1; details: at 1 µM
Chain of Calcium/calmodulin-dependent protein kinase kinase 1 (Homo sapiens) (Q8N5S9 whole entry, looked up): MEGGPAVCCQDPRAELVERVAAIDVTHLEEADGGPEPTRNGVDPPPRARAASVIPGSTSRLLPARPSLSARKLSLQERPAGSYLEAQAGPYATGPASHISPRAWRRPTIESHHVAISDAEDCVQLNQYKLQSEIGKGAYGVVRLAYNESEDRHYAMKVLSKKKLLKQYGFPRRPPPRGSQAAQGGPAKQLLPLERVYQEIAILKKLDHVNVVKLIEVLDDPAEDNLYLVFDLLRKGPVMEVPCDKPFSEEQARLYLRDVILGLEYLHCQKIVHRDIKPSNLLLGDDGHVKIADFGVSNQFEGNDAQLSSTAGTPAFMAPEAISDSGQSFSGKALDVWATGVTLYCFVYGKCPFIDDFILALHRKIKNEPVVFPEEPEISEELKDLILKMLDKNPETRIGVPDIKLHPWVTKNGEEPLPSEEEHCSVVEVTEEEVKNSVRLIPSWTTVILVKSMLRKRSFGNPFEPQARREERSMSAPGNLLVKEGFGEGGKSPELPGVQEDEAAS

[6] = biological target: T3, Serine/threonine-protein kinase D3 (Homo sapiens) (UniProt O94806); assay: Selectivity interaction (Ambit KINOMEscan and KiNATiv profiling in Jurkat cells) EUB0000090b PRKD3; assay type: cell-based; details: at 1 µM
T3 sequence (whole entry): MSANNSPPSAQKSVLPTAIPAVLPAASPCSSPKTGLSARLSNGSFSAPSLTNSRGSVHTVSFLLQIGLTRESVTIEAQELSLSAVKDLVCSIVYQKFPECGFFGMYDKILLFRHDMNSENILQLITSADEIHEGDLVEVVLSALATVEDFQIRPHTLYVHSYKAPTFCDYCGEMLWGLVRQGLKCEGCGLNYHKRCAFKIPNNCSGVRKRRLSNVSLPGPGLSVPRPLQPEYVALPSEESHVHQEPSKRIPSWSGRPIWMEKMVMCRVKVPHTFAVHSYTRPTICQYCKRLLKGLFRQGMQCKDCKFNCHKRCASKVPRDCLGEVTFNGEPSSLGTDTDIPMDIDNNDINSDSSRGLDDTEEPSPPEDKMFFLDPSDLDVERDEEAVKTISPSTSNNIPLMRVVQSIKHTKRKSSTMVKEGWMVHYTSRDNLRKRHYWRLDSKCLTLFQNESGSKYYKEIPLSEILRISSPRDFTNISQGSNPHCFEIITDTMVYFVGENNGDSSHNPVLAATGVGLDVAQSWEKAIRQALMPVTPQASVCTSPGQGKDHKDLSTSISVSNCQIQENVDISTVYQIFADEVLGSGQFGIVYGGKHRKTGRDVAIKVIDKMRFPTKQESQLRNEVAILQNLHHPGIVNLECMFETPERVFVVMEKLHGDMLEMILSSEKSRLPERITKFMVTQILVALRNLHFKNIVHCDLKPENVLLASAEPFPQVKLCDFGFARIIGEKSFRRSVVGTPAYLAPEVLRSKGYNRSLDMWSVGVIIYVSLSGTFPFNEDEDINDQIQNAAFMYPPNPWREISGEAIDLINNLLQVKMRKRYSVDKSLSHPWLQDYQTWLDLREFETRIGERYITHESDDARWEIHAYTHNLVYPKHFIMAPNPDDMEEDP

[7] = biological target: Dual specificity tyrosine-phosphorylation-regulated kinase 1B (Homo sapiens, UniProt Q9Y463); assay: Selectivity interaction (KinomeScan (DiscoverX)) EUB0000229b DYRK1B; details: at 10 µM
Chain of Dual specificity tyrosine-phosphorylation-regulated kinase 1B (Q9Y463 whole entry, looked up): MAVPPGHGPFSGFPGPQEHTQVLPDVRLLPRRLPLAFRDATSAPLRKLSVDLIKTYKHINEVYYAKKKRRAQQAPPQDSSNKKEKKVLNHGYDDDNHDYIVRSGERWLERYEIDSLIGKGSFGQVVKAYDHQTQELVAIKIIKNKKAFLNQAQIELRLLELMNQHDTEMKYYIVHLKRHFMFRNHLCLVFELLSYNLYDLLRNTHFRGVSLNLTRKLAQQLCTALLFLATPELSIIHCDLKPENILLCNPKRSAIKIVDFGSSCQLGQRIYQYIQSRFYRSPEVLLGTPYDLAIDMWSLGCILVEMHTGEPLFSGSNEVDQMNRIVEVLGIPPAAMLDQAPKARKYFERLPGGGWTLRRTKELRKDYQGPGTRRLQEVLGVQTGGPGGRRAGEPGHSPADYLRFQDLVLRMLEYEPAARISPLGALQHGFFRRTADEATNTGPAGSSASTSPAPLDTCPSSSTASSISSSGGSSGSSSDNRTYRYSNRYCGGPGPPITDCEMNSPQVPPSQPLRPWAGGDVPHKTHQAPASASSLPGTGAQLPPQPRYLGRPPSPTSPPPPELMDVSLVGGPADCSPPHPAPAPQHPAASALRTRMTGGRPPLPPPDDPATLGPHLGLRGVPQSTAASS

[8] = biological target: Eukaryotic translation initiation factor 2-alpha kinase 1 (Homo sapiens) (UniProt Q9BQI3); assay: Selectivity interaction (KinomeScan (DiscoverX)) EUB0000618a EIF2AK1; details: at 10 µM
Chain of Eukaryotic translation initiation factor 2-alpha kinase 1 (Homo sapiens) (Q9BQI3 whole entry): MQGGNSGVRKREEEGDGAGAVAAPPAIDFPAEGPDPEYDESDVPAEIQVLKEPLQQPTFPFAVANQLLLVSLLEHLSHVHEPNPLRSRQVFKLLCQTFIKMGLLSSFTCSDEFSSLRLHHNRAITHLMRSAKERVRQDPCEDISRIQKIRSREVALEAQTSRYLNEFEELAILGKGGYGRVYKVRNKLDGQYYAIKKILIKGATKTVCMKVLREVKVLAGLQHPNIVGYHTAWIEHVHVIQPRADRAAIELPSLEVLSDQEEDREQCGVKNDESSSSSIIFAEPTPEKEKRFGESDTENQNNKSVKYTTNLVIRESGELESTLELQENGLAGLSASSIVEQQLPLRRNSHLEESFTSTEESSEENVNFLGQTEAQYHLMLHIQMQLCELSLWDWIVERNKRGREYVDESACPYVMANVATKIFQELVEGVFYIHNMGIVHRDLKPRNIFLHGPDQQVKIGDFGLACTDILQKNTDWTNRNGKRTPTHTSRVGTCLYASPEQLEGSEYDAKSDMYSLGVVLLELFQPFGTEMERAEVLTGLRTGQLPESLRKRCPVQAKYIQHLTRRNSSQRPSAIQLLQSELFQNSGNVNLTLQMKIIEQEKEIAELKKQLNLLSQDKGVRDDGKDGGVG

Compound: O=C(NOC[C@H](O)CO)c1ccc(F)c(F)c1Nc1ccc(I)cc1F
% of control [1]: 74%

Compound: CNC(=O)Nc1ccc(-c2nc(N3CC4CCC(C3)O4)c3cnn(C4CCC5(CC4)OCCO5)c3n2)cc1
% of control [2]: 100%
% of control [3]: 80%

% of inhibition ([4]; at 0.01 µM): 10.3%
% of inhibition ([4]; at 0.04 µM): -4.9%
% of inhibition ([4]; at 0.2 µM): -20.6%
% of inhibition ([4]; at 1 µM): 17.5%
% of inhibition ([4]; at 5 µM): 62.3%
Compound: CC[C@@H]1[C@H](F)C(=O)N[C@@H]1COc1nccc2cc(C(N)=O)c(OC)cc12 [ZIMLOVISERTIB]

Compound: COc1cc(Nc2nc(C)cc(-c3cnn4nc(OC)ccc34)n2)cc(C(F)(F)F)c1
% of control [5]: 95%

Compound: CN(C)C/C=C/C(=O)Nc1ccc(C(=O)N2CCCC(Nc3ncc(Cl)c(-c4c[nH]c5ccccc45)n3)C2)cc1 (configuration not stated)
% of control [6]: 33%

Compound: COc1cc(N(C)c2ccnc3ccc(C(F)(F)F)cc23)cc(OC)c1OC
% binding [7]: 77%

Compound: O[C@H]1CC[C@H](Nc2ncc3nc(Nc4c(F)cc(F)cc4F)n([C@H]4CCOC4)c3n2)CC1
% of control [8]: 100%
